Reference: the NIST ThermoML archive (doi:10.1021/je034087q)

Test: xn = mol fraction of the nth substance listed
Conditions: 323.15 K, Fluid (supercritical or subcritical phases)

CCCCC [pentane] + O=C=O
Conditions	mass density [kg/m3]
2770 kPa, x2 = 0.214	612
3730 kPa, x2 = 0.36	633
3800 kPa, x2 = 0.214	617
4510 kPa, x2 = 0.36	635
5380 kPa, x2 = 0.36	636
5920 kPa, x2 = 0.214	623
6240 kPa, x2 = 0.36	640
6870 kPa, x2 = 0.671	707
7170 kPa, x2 = 0.36	643
7390 kPa, x2 = 0.791	655
7500 kPa, x2 = 0.671	713
7530 kPa, x2 = 0.214	627
7770 kPa, x2 = 0.791	663
8020 kPa, x2 = 0.87	577
8150 kPa, x2 = 0.36	645
8150 kPa, x2 = 0.87	584
8220 kPa, x2 = 0.916	454
8230 kPa, x2 = 0.916	458
8240 kPa, x2 = 0.916	460
8240 kPa, x2 = 0.939	352
8260 kPa, x2 = 0.87	590
8270 kPa, x2 = 0.916	468
8270 kPa, x2 = 0.939	356
8280 kPa, x2 = 0.791	670
8290 kPa, x2 = 0.939	358
8310 kPa, x2 = 0.939	361
8320 kPa, x2 = 0.916	475
8330 kPa, x2 = 0.939	363
8370 kPa, x2 = 0.671	719
8370 kPa, x2 = 0.916	483
8380 kPa, x2 = 0.939	368
8390 kPa, x2 = 0.901	515
8410 kPa, x2 = 0.916	491
8420 kPa, x2 = 0.87	597
8420 kPa, x2 = 0.939	375
8430 kPa, x2 = 0.901	520
8450 kPa, x2 = 0.916	499
8460 kPa, x2 = 0.901	524
8460 kPa, x2 = 0.939	380
8500 kPa, x2 = 0.901	529
8500 kPa, x2 = 0.916	508
8500 kPa, x2 = 0.939	386
8530 kPa, x2 = 0.901	533
8540 kPa, x2 = 0.939	393
8550 kPa, x2 = 0.87	602
8570 kPa, x2 = 0.901	538
8570 kPa, x2 = 0.916	517
8570 kPa, x2 = 0.939	399
8620 kPa, x2 = 0.901	542
8620 kPa, x2 = 0.939	406
8650 kPa, x2 = 0.916	527
8660 kPa, x2 = 0.939	413
8670 kPa, x2 = 0.901	548
8700 kPa, x2 = 0.939	420
8710 kPa, x2 = 0.87	610
8710 kPa, x2 = 0.901	552
8710 kPa, x2 = 0.916	536
8740 kPa, x2 = 0.939	428
8760 kPa, x2 = 0.901	558
8810 kPa, x2 = 0.916	546
8810 kPa, x2 = 0.939	436
8830 kPa, x2 = 0.901	562
8850 kPa, x2 = 0.939	444
8860 kPa, x2 = 0.791	681
8890 kPa, x2 = 0.901	568
8890 kPa, x2 = 0.939	453
8920 kPa, x2 = 0.87	619
8930 kPa, x2 = 0.916	556
8950 kPa, x2 = 0.939	461
8980 kPa, x2 = 0.901	573
9010 kPa, x2 = 0.939	470
9050 kPa, x2 = 0.901	579
9070 kPa, x2 = 0.916	568
9070 kPa, x2 = 0.939	479
9120 kPa, x2 = 0.87	624
9140 kPa, x2 = 0.901	583
9140 kPa, x2 = 0.939	489
9210 kPa, x2 = 0.939	500
9230 kPa, x2 = 0.901	590
9240 kPa, x2 = 0.916	579
9280 kPa, x2 = 0.36	647
9300 kPa, x2 = 0.939	511
9350 kPa, x2 = 0.901	595
